Type in all cases: cell-based
For assay [1], the target named is human calcitonin receptor (CTR) and RAMP3 (AMY3) in COS-7 cells (Homo sapiens, UniProt O60896+P30988). Nature of the assay: Amylin Receptor cAMP Assay II. To be noted: value marked **: Amylin Receptor cAMP Assay II; COS-7/AMY3 cells; read-out: Amylin Receptor cAMP Stimulation Activity: EC50. From the text: Amylin Receptor cAMP Assay II
AMYRs are heterodimers of the class B calcitonin (CT) G-protein-coupled receptor (CTR) and receptor activity-modifying proteins (RAMPs). All three RAMPs can interact with the CTR and form AMY1, AMY2, AMY3 with RAMP1, RAMP2 and RAMP3, respectively. Like other class B1 GPCRs, the CT receptor family is canonically coupled to Gs-mediated cAMP production, and measurement of cAMP accumulation has been the primary assay used to determine peptide selectivity and potency.
To optimize functional activity directed toward Gas coupling, COS-7 cells were stably transfected with human calcitonin receptor (CTR) and RAMP3, simultaneously. 100× concentration of compound working solutions were prepared with 4-fold serial dilution in 384-well Echo LDV plate (Labcyte, Cat #LP-0200-BC). 200 nL/well 100× concentration of compound working solutions were moved to 384-well white microplate (Perkin Elmer, Cat #6007680) using Labcyte ECHO550. […]
After incubation, the cAMP assay signal was generated using cAMP dynamic 2 kit (Revvity, Cat #62AM4PEC). […] The samples were then incubated at room temperature for 1 hour protected from light. the fluorescence was read at 665 and 615 nm with Reader PerkinElmer EnVision 2105.

Assay [2] deals with T1, human calcitonin receptor (CTR) in COS-7 cells (Homo sapiens, UniProt P30988).
T1 construct: expressed in transfected cells; host or cells: COS-7 (COS7-human CTR Clone #2)
T1 sequence (P30988 25-474): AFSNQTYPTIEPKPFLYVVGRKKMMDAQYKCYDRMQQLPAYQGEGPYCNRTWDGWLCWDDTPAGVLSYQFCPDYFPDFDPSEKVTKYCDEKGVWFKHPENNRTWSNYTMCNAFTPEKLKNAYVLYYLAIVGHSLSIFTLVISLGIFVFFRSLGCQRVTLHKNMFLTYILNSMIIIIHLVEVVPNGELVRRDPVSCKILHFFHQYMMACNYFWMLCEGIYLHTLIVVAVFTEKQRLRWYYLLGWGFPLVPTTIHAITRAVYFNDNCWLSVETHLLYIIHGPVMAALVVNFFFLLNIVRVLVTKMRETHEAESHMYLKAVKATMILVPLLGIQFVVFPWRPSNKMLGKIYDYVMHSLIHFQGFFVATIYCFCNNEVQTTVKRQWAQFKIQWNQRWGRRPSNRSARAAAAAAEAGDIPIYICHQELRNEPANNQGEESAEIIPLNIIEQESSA
Put plainly: Calcitonin Receptor (CTR) cAMP Assay. To be noted: COS7-human CTR Clone #2 cells; read-out: Calcitonin Receptor cAMP Stimulation Activity: EC50. From the text: Calcitonin Receptor (CTR) cAMP Assay
The calcitonin receptor (CTR) belongs to the subfamily of GPCRs known as the secretin or ‘B’ family of GPCRs. Like other class B1 GPCRs, the CT receptor family is canonically coupled to Gs-mediated cAMP production, and measurement of cAMP accumulation has been the primary assay used to determine peptide selectivity and potency.
(§1) To optimize functional activity directed toward Gas coupling, COS-7 cells were stably transfected with human calcitonin receptor (CTR) to create COS7-human CTR Clone #2 stable cell line. 100× concentration of compound working solutions were prepared with 4-fold serial dilution in 384-well Echo LDV plate (Labcyte, Cat #LP-0200-BC). 200 nL/well 100× concentration of compound working solutions were moved to 384-well white microplate (Perkin Elmer, Cat #6007680) using Labcyte ECHO550. 1×10^5 cells/mL COS7-human CTR Clone #2 cell suspensions prepared with assay buffer [HBSS containing 20 mM HEPES (Gibco, Cat #15630-080), 0.5 mM IBMX (Sigma, Cat #15879) and 0.1% Casein (Sigma, Cat #C4765)], 20 μL cell suspensions were added to each well of previous generated assay plate which already contains 200 nL compound at 100× concentration using ThermoFisher Multidrop Combi (2000 cells/well). Seal the plate and incubate at 37° C. with 5% CO2 for 30 min.
After incubation, the cAMP assay signal was generated using cAMP dynamic 2 kit (Revvity, Cat #62AM4PEC). 10 μL cAMP-d2 working solution was added to each well, followed by […] Anti-cAMP antibody-cryptate working solution which was added to each well using CERTUS FLEX LIQUID DISPENSER. The samples were then incubated at room temperature for 1 hour protected from light. the fluorescence was read at 665 and 615 nm with Reader PerkinElmer EnVision 2105.

In the next assay the target is Amylin Receptor (Homo sapiens, UniProt O60896+P30988). Nature of the assay: Amylin Receptor cAMP stimulation, assay version (I or II) not marked. To be noted: values without footnote mark; assay I or II not stated. How it is done:
To optimize functional activity directed toward Gas coupling, COS-7 cells were stably transfected with human calcitonin receptor (CTR) and RAMP3, simultaneously. 100× concentration of compound working solutions were prepared (Agilent Technologies Bravo) with 4-fold serial dilution in 384-well Echo LDV plate (Labcyte, Cat #LP-0200). 100 nL/well 100× concentration of compound working solutions were moved to 384-well white low volume plate (Greiner, Cat #784075) using Labcyte ECHO550. 1×10^5 cells/mL COS-7/CTR or COS-7/AMY3 (HD Biosciences) cell suspensions prepared with assay buffer [DPBS containing 0.5 mM IBMX (Sigma, Cat #15879) and 0.1% BSA (GENVIEW, Cat #FA016-100 g)], 10 μL cell suspensions were added to each well of previous generated assay plate which already contains 100 nL compound at 100× concentration using ThermoFisher Multidrop Combi (1000 cells/well). Seal the plate and incubate at 37° C. with 5% CO2 for 30 min.
After incubation, the cAMP assay signal was generated using cAMP Hi-range Kit (Cisbio). 5 μL cAMP-d2 working solution was added to each well, followed by 5 μL Anti-cAMP antibody-cryptate working solution which was added to each well using ThermoFisher Multidrop Combi. The samples were then incubated at room temperature for 1 hour protected from light. the fluorescence was read at 665 and 615 nm with Reader PerkinElmer EnVision.
as §1, with “and RAMP3, simultaneously.” for “to create COS7-human CTR Clone #2 stable cell line.”, “COS-7/AMY3” for “COS7-human CTR Clone #2”
After incubation, the cAMP assay signal was generated using cAMP dynamic 2 kit (Revvity, Cat #62AM4PEC). 10 μL cAMP-d2 working solution was added to each well, followed by 10 μL Anti-cAMP antibody-cryptate working solution which was added to each well using CERTUS FLEX LIQUID DISPENSER. The samples were then incubated at room temperature for 1 hour protected from light. the fluorescence was read at 665 and 615 nm with Reader PerkinElmer EnVision 2105.

Molecules are shown by their SMILES.

The source of these data is patent US20250042916A1 (ACONCAGUA BIO, INC., priority 2023, published 2025).

Amylin Receptor, sequence (O60896 24-148, one chain of several): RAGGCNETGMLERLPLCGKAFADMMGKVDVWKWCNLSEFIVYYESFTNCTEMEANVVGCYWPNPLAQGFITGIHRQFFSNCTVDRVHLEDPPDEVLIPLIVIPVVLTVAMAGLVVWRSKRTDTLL
human calcitonin receptor (CTR) and RAMP3 (AMY3) in COS-7 cells, sequence (O60896 24-148, one chain of several): as above

Turning to `Cc1nnc(-c2c(CCC3CCN(C(=O)OCc4ccccc4)CC3)nc(CC(C)C)c(C(N)=O)c2-c2ccc(C(=O)NCc3ccc(F)c(F)c3)s2)o1` [Compound 205, Benzyl 4-[2-[5-carbamoyl-4-[5-[(3,4-difluorophenyl)methylcarbamoyl]-2-thienyl]-6-isobutyl-3-(5-methyl-1,3,4-oxadiazol-2-yl)-2-pyridyl]ethyl]piperidine-1-carboxylate], the EC50 – broadly, the concentration that produces a half-maximal response – in assay [1] amounted to 66 nM; in assay [2] it was 6 nM.
As for `COc1cccc2c1CC[C@H]2Nc1nccc2cc(-c3c(C(N)=O)c(CC(C)C)nc(CCC4CCOCC4)c3-c3nnc(C)o3)sc12` [Compound 208, 4-{7-[(R)-4-methoxy-1-indanylamino]-1-thia-6-aza-2-indenyl}-2-isobutyl-5-(5-methyl-1,3,4-oxadiazol-2-yl)-6-[2-(tetrahydro-2H-pyran-4-yl)ethyl]nicotinamide], the 50% effective concentration (EC50) in assay [2] was 0.581 nM; on Amylin Receptor, 18.9 nM.
